Measured values from patent EP0432309B1, “Sugar derivatives, process for their preparation and their use” (Laevosan-Gesellschaft m.b.H., priority 1989, dated 1991).

Tests used:
[1] = test system: Escherichia coli ATCC 8739; test: preservation test according to DAB 9, VIII, N1 (colony counts over time); type: cell-based; conditions: E. coli; for KBE nach 10 Tagen: 10 days; for KBE nach 3 Tagen: 3 days; for KBE nach 1 Tag: 1 day
Text: (§1) Die erfindungsgemäßen Verbindungen weisen eine bakterizide Wirksamkeit auf, wie die nachstehend angegebenen Versuchsergebnisse zeigen: Präparat: Di-deoxy-glyceropentulose-Dianhydrid 0,3 %, 1 % und 3 % Die Untersuchung wurde mit folgenden Keimen durchgeführt: Escherichia coli ATCC 8739 Pseudomonas aeruginosa ATCC 9027 Staphylococcus aureus ATCC 6538 Candida albicans ATCC 10231 Aspergillus niger ATCC 16404 Tabelle 6
(§2) Analog Beispiel 9 wurde die bakterizide Wirksamkeit von DGP untersucht. Präparat: DGP-wässriger Sirup 0,3 %, 1 % und 3 %, Charge: 91621 Die Untersuchung wurde mit folgenden Keimen durchgeführt: Escherichia coli ATCC 8739 Pseudomonas aeruginosa ATCC 9027 Staphyloccus aureus ATCC 6538 Candida albicans ATCC 10231 Aspergillus niger ATCC 16404 Tabelle 7

[2] = test system: Staphylococcus aureus ATCC 6538; test: as above; type: cell-based; conditions: Staph. aureus; for KBE nach 10 Tagen: 10 days; for KBE nach 3 Tagen: 3 days; for KBE nach 1 Tag: 1 day
Text: as §1, §2

[3] = test system: Pseudomonas aeruginosa ATCC 9027; test: as above; type: cell-based; conditions: Pseud. aerug.; for KBE nach 10 Tagen: 10 days; for KBE nach 3 Tagen: 3 days; for KBE nach 1 Tag: 1 day
Text: as §1, §2

[4] = test system: humanen Ovarialkarzinom-Zellkultur (HOC-7); test: human tumour cloning assay (HTCA): clonal growth of single malignant cells in semisolid media, colonies counted after 21 days; type: cell-based; conditions: for Kolonienüberleben: HOC-7, 21 days; for antiproliferative/cytotoxische Wirkung: HOC-7, HTCA, result in words
Text: Zur Prüfung auf ihre antiproliferativen/cytotoxischen Eigenschaften wurden die erfindungsgemäßen Verbindungen der Formel I und II mittels einer humanen Ovarialkarzinom-Zellkultur (HOC-7) getestet, wobei als Testsystem der sogenannte human tumour cloning assay (HTCA) herangezogen wurde, ein System, in dem das klonale Wachstum maligner Einzelzellen in semisoliden Medien selektiv erfaßt wird (vgl. S. Hamburger, Science 197, (1977), 461). Dabei zeigten die Verbindungen eine überraschend hohe antiproliferative/cytotoxische Wirkung.
Das in Beispiel 1 hergestellte 3-DGP sowie DGP-DA von Beispiel 2 wurden hinsichtlich ihrer antiproliferativen/cytotoxischen Eigenschaften mittels einer humanen Ovarialkarzinom-Zellkultur (HOC-7) getestet, wobei als Testsystem der sogenannte human tumour cloning assay (HTCA) herangezogen wurde, ein System, in dem das klonale Wachstum maligner Einzelzellen in semisoliden Medien selektiv erfaßt wird (vgl. S. Hamburger, Science 197, (1977), 461).
Je eine wäßrige Lösung von 3-DGP und DGP-DA wurde in folgender Verdünnungsreihe getestet.
wobei sowohl ein […] (in Form von HgCl₂) als auch ein Ansatz mit Lösungsmittel (Aqua bidest) mitgeführt wurde.
Die Kulturen wurden bei 37°C, 5 % CO₂, 100 % Luftfeuchtigkeit 21 Tage inkubiert, danach wurden die Kultursysteme aufgearbeitet, wobei die gewachsenen Kolonien (Klone) unter dem Mikroskop ausgezählt wurden.
Als Wirksamkeit der getesteten Lösung wurde ein Kolonienüberleben < 50 % der Kontrolle definiert.

[5] = stability / hydrolysis in aqueous solution; type: physicochemical; conditions: result in words
Method: Aus den geeigneten Fraktionen kann hochgereinigte 3-DGP als farbloser, nicht kristallisierender Sirup erhalten werden. Da die Substanz unter wasserfreien oder wasserarmen Bedingungen zur Bildung von dimeren Anhydriden neigt, ist es zweckmäßig, sie als etwa 50 %ige wäßrige Lösung herzustellen und aufzubewahren. […] Erhöhung der Temperatur und Absenken des pH-Wertes beschleunigen diese Zersetzung. Für die Aufbewahrung ist es daher zweckmäßig, Temperaturen von ≦ 4°C und pH-Werte zwischen 5 und 6 einzuhalten. In solchen Lösungen liegt offenbar ein Gemisch der alpha- und beta-Furanosen und des offenkettigen Ketozuckers vor.
Die Glycoside bilden sich außerordentlich leicht aus den Lösungen von 3-DGP in den entsprechenden Alkoholen in Gegenwart sehr geringer Mengen an Säure oder Ionenaustauscher in der H⁺-Form als Katalysator bereits nach kurzer Behandlung bei Raumtemperatur. Ebenso leicht tritt in wäßriger Lösung Hydrolyse der Glycoside ein, so daß unter physiologischen Bedingungen eine Äquivalenz mit freier 3-DGP erwartet werden kann.
Das Dianhydrid der Formel II (R = H) bildet sich leicht bei Behandlung von mäßig sauren 3-DGP-Lösungen mit wasserentziehenden Mitteln, wie z.B. wasserfreiem Natriumsulfat oder Calciumsulfat, oder beim Eindampfen von wäßrigen oder organischen Lösungen von 3-DGP und Stehenlassen des wasserfreien Produktes.

[6] = result in words

SMILES: O=C(CO)C[C@H](O)CO [DGP, 3-Deoxy-D-Glyceropentulose]
- KBE nach 10 Tagen ([1]; Konz 3 %): 0 KBE
- KBE nach 10 Tagen ([2]; Konz 0,3 %): 0 KBE
- KBE nach 10 Tagen ([2]; Konz 1 %): 0 KBE
- KBE nach 3 Tagen ([2]; Konz 3 %): 0 KBE
- KBE nach 10 Tagen ([2]; Konz 3 %): 0 KBE
- KBE nach 10 Tagen ([3]; Konz 0,3 %): 0 KBE
- KBE nach 3 Tagen ([3]; Konz 1 %): 0 KBE
- KBE nach 10 Tagen ([3]; Konz 1 %): 0 KBE
- KBE nach 1 Tag ([3]; Konz 3 %): 15 KBE
- KBE nach 3 Tagen ([3]; Konz 3 %): 0 KBE
- KBE nach 10 Tagen ([3]; Konz 3 %): 0 KBE
- Kolonienüberleben ([4]; Testkonzentration C-F (5.000-250 µg/ml im Petrischälchen), % of control): 0 % = Wirksamkeit
- Kolonienüberleben ([4]; Testkonzentration F1 (200 µg/ml)): 0,08 % = Wirksamkeit
- Kolonienüberleben ([4]; Testkonzentration F2 (152 µg/ml)): 10 % = Wirksamkeit
- Kolonienüberleben ([4]; Testkonzentration F3 (100 µg/ml)): 44 % = intermediäre Wirksamkeit
- Kolonienüberleben ([4]; Testkonzentration G-J (50-2,5 µg/ml)): 65 - 84 % = keine Wirksamkeit
- Stabilität der wäßrigen Lösung [5]: relativ instabil

SMILES: OC1COC2(COC3(CO2)CC(O)CO3)C1 [DGP-DA, Di-(3-deoxy-D-glyceropentulose)-dianhydrid]
- KBE nach 3 Tagen ([1]; Konz 0,3 %): 0 KBE
- KBE nach 10 Tagen ([1]; Konz 0,3 %): 0 KBE
- KBE nach 1 Tag ([1]; Konz 1 %): 0 KBE
- KBE nach 3 Tagen ([1]; Konz 1 %): 0 KBE
- KBE nach 10 Tagen ([1]; Konz 1 %): 0 KBE
- KBE nach 1 Tag ([1]; Konz 3 %): 0 KBE
- KBE nach 3 Tagen ([1]; Konz 3 %): 0 KBE
- KBE nach 10 Tagen ([1]; Konz 3 %): 0 KBE
- KBE nach 1 Tag ([2]; Konz 0,3 %): 0 KBE
- KBE nach 3 Tagen ([2]; Konz 0,3 %): 0 KBE
- KBE nach 10 Tagen ([2]; Konz 0,3 %): 0 KBE
- KBE nach 1 Tag ([2]; Konz 1 %): 0 KBE
- KBE nach 3 Tagen ([2]; Konz 1 %): 0 KBE
- KBE nach 10 Tagen ([2]; Konz 1 %): 0 KBE
- KBE nach 1 Tag ([2]; Konz 3 %): 0 KBE
- KBE nach 3 Tagen ([2]; Konz 3 %): 0 KBE
- KBE nach 10 Tagen ([2]; Konz 3 %): 0 KBE
- KBE nach 1 Tag ([3]; Konz 3 %): 0 KBE
- KBE nach 3 Tagen ([3]; Konz 3 %): 0 KBE
- KBE nach 10 Tagen ([3]; Konz 3 %): 0 KBE
- Kolonienüberleben ([4]; Testkonzentration C (5.000 µg/ml)): 30 % = Wirksamkeit
- Kolonienüberleben ([4]; Testkonzentration D (2.500 µg/ml)): 50 % = intermediäre Wirksamkeit
- Kolonienüberleben ([4]; Testkonzentration E (500 µg/ml)): 57 % = intermediäre Wirksamkeit
- Kolonienüberleben ([4]; Testkonzentration F-J (250-2,5 µg/ml)): 61 - 89 % = keine Wirksamkeit
- Stabilität der wäßrigen Lösung [5]: leicht zum Monomeren spaltbar

SMILES: CCCCOC1(COC(C)=O)C[C@H](OC(C)=O)CO1 (stereo partly drawn) [Diacyl-n-butyl-glycosid, n-Butyl-1,4-Diacetyl-3-Deoxy-D-Glyceropentulosid]
- antiproliferative/cytotoxische Wirkung [4]: eindeutige antiproliferative/cytotoxische Wirkung

SMILES: COC1(CO)C[C@H](O)CO1 (stereo partly drawn) [Methylglycosid, Methyl-3-Deoxy-D-Glyceropentulosid]
- antiproliferative/cytotoxische Wirkung [4]: eindeutige antiproliferative/cytotoxische Wirkung

SMILES: [Cl][Hg][Cl] [Negativkontrolle, HgCl₂, reference compound]
- Kolonienüberleben ([4]; Negativkontrolle VI (HgCl₂), concentration not given): 0%

SMILES: CCCCOC1(CO)C[C@H](O)CO1 (stereo partly drawn) [n-Butylglycosid, n-Butyl-3-Deoxy-D-Glyceropentulosid]
- Löslichkeit [6]: gut löslich in Wasser, Alkoholen und niederen Ketonen
- antiproliferative/cytotoxische Wirkung [4]: eindeutige antiproliferative/cytotoxische Wirkung
